# From PubChem BioAssay AID1963974 (Molecular Pharmacology Branch, DTP, NCI, 2024)
# Test system: 648629-189-R-J1-PDC spheroids with HUVEC/MSC, viability
# Assay: Anticancer human tumor 648629-189-R-J1-PDC patient-derived bladder carcinoma cell line growth inhibition [PI3K]
# Conditions: for IC50: curve of first compound; for viability, T/C: stronger effect = lower value
# Summary of the method: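 We assembled tumor spheroids that included a stromal compartment of HUVEC and MSCs, then exposed them to targeted agents alone and together with PI3K pathway inhibitors. Concentration series descended by half-log from clinically achievable Cmax levels. Viability served as the endpoint.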
# [1] = second compound 0.0316 µM, first compound 0.0316 µM
# [2] = second compound 0.0316 µM, first compound 0.1 µM
# [3] = second compound 0.0316 µM, first compound 0.316 µM
# [4] = second compound 0.0316 µM, first compound 1 µM
# [5] = second compound 0.0316 µM, first compound 3.16 µM
# [6] = second compound 0.0316 µM, first compound 10 µM
# [7] = second compound 0.1 µM, first compound 0.0316 µM
# [8] = second compound 0.1 µM, first compound 0.1 µM
# [9] = second compound 0.1 µM, first compound 0.316 µM
# [10] = second compound 0.1 µM, first compound 1 µM
# [11] = second compound 0.1 µM, first compound 3.16 µM
# [12] = second compound 0.1 µM, first compound 10 µM
# [13] = second compound 0.316 µM, first compound 0.0316 µM
# [14] = second compound 0.316 µM, first compound 0.1 µM
# [15] = second compound 0.316 µM, first compound 0.316 µM
# [16] = second compound 0.316 µM, first compound 1 µM
# [17] = second compound 0.316 µM, first compound 3.16 µM
# [18] = second compound 0.316 µM, first compound 10 µM
# [19] = second compound 1 µM, first compound 0.0316 µM
# [20] = second compound 1 µM, first compound 0.1 µM
# [21] = second compound 1 µM, first compound 0.316 µM
# [22] = second compound 1 µM, first compound 1 µM
# [23] = second compound 1 µM, first compound 3.16 µM
# [24] = second compound 1 µM, first compound 10 µM
# [25] = second compound 3.16 µM, first compound 0.0316 µM
# [26] = second compound 3.16 µM, first compound 0.1 µM
# [27] = second compound 3.16 µM, first compound 0.316 µM
# [28] = second compound 3.16 µM, first compound 1 µM
# [29] = second compound 3.16 µM, first compound 3.16 µM
# [30] = second compound 3.16 µM, first compound 10 µM
# [31] = second compound 10 µM, first compound 0.0316 µM
# [32] = second compound 10 µM, first compound 0.1 µM
# [33] = second compound 10 µM, first compound 0.316 µM
# [34] = second compound 10 µM, first compound 1 µM
# [35] = second compound 10 µM, first compound 3.16 µM
# [36] = second compound 10 µM, first compound 10 µM
# 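Note: spheroids exposed to agents for seven days before reading.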
# 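Throughout, for viability, T/C: percent of vehicle control luminescence where 100% = DMSO treated spheroids.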
structure (smiles),measurement,setting,value
C#Cc1c(F)ccc2cc(O)cc(-c3ncc4c(N5CC6CCC(C5)N6)nc(OCC56CCCN5CC(F)C6)nc4c3F)c12 (stereo unspecified) + Cc1nc(NC(=O)N2CCCC2C(N)=O)sc1-c1ccnc(C(C)(C)C(F)(F)F)c1,IC50,second compound 0.0316 µM,> 10 µM
same,IC50,second compound 0.1 µM,> 10 µM
same,IC50,second compound 0.316 µM,> 10 µM
same,IC50,second compound 1 µM,> 10 µM
same,IC50,second compound 3.16 µM,> 10 µM
same,IC50,second compound 10 µM,< 0.0316 µM
same,"viability, T/C",[1],100%
same,"viability, T/C",[2],103%
same,"viability, T/C",[3],103%
same,"viability, T/C",[4],99.6%
same,"viability, T/C",[5],89.3%
same,"viability, T/C",[6],91.3%
same,"viability, T/C",[7],101%
same,"viability, T/C",[8],96.8%
same,"viability, T/C",[9],97.5%
same,"viability, T/C",[10],87.4%
same,"viability, T/C",[11],95.1%
same,"viability, T/C",[12],91.4%
same,"viability, T/C",[13],90.7%
same,"viability, T/C",[14],88.1%
same,"viability, T/C",[15],87%
same,"viability, T/C",[16],86.1%
same,"viability, T/C",[17],80.4%
same,"viability, T/C",[18],79.5%
same,"viability, T/C",[19],77.9%
same,"viability, T/C",[20],77.4%
same,"viability, T/C",[21],77%
same,"viability, T/C",[22],72.4%
same,"viability, T/C",[23],68.9%
same,"viability, T/C",[24],70.5%
same,"viability, T/C",[25],52.7%
same,"viability, T/C",[26],56.1%
same,"viability, T/C",[27],55%
same,"viability, T/C",[28],52.7%
same,"viability, T/C",[29],50.6%
same,"viability, T/C",[30],54.9%
same,"viability, T/C",[31],36.3%
same,"viability, T/C",[32],34.2%
same,"viability, T/C",[33],34.5%
same,"viability, T/C",[34],34.5%
same,"viability, T/C",[35],31.2%
same,"viability, T/C",[36],5.29%
CC(Cn1ccc(-c2ccc(C#N)c(Cl)c2)n1)NC(=O)c1cc(C(C)O)[nH]n1 (stereo unspecified) + Cc1nc(NC(=O)N2CCCC2C(N)=O)sc1-c1ccnc(C(C)(C)C(F)(F)F)c1,IC50,second compound 0.0316 µM,> 10 µM
same,IC50,second compound 0.1 µM,> 10 µM
same,IC50,second compound 0.316 µM,> 10 µM
same,IC50,second compound 1 µM,> 10 µM
same,IC50,second compound 3.16 µM,> 10 µM
same,IC50,second compound 10 µM,< 0.0316 µM
same,"viability, T/C",[1],86.5%
same,"viability, T/C",[2],95.8%
same,"viability, T/C",[3],95.9%
same,"viability, T/C",[4],87.5%
same,"viability, T/C",[5],82.8%
same,"viability, T/C",[6],67.1%
same,"viability, T/C",[7],92.4%
same,"viability, T/C",[8],91.8%
same,"viability, T/C",[9],87.7%
same,"viability, T/C",[10],89.6%
same,"viability, T/C",[11],77.7%
same,"viability, T/C",[12],66.2%
same,"viability, T/C",[13],91.5%
same,"viability, T/C",[14],84.6%
same,"viability, T/C",[15],87.3%
same,"viability, T/C",[16],81.5%
same,"viability, T/C",[17],78.1%
same,"viability, T/C",[18],68.2%
same,"viability, T/C",[19],70.8%
same,"viability, T/C",[20],74.2%
same,"viability, T/C",[21],68.1%
same,"viability, T/C",[22],69.9%
same,"viability, T/C",[23],63.9%
same,"viability, T/C",[24],62.3%
same,"viability, T/C",[25],53.1%
same,"viability, T/C",[26],54.6%
same,"viability, T/C",[27],47.4%
same,"viability, T/C",[28],51.5%
same,"viability, T/C",[29],57.1%
same,"viability, T/C",[30],52.6%
same,"viability, T/C",[31],38.5%
same,"viability, T/C",[32],38.6%
same,"viability, T/C",[33],35.4%
same,"viability, T/C",[34],40.4%
same,"viability, T/C",[35],36.9%
same,"viability, T/C",[36],37.4%
CC1(C)CCC(Nc2ncc(C(F)(F)F)c(-c3c[nH]c4c(P(C)(C)=O)c(C#N)ccc34)n2)CN1 (stereo unspecified) + Cc1nc(NC(=O)N2CCCC2C(N)=O)sc1-c1ccnc(C(C)(C)C(F)(F)F)c1,IC50,second compound 0.0316 µM,< 0.0316 µM
same,IC50,second compound 0.1 µM,< 0.0316 µM
same,IC50,second compound 0.316 µM,< 0.0316 µM
same,IC50,second compound 1 µM,< 0.0316 µM
same,IC50,second compound 3.16 µM,< 0.0316 µM
same,IC50,second compound 10 µM,< 0.0316 µM
same,"viability, T/C",[1],29.4%
same,"viability, T/C",[2],27.6%
same,"viability, T/C",[3],25.6%
same,"viability, T/C",[4],33.7%
same,"viability, T/C",[5],40.7%
same,"viability, T/C",[6],5.12%
same,"viability, T/C",[7],24.7%
same,"viability, T/C",[8],27.4%
same,"viability, T/C",[9],29.3%
same,"viability, T/C",[10],38.2%
same,"viability, T/C",[11],40.9%
same,"viability, T/C",[12],4.14%
same,"viability, T/C",[13],27.6%
same,"viability, T/C",[14],24.7%
same,"viability, T/C",[15],30.5%
same,"viability, T/C",[16],27.9%
same,"viability, T/C",[17],36.4%
same,"viability, T/C",[18],4.18%
same,"viability, T/C",[19],26.8%
same,"viability, T/C",[20],23.9%
same,"viability, T/C",[21],26%
same,"viability, T/C",[22],27.4%
same,"viability, T/C",[23],27.4%
same,"viability, T/C",[24],2.87%
same,"viability, T/C",[25],26%
same,"viability, T/C",[26],23.1%
same,"viability, T/C",[27],21%
same,"viability, T/C",[28],22.2%
same,"viability, T/C",[29],24.7%
same,"viability, T/C",[30],1.62%
same,"viability, T/C",[31],21.5%
same,"viability, T/C",[32],17.1%
same,"viability, T/C",[33],18.1%
same,"viability, T/C",[34],16.6%
same,"viability, T/C",[35],15.5%
same,"viability, T/C",[36],0.41%
